Results as given in US11919857B2, “Phthalide derivative, preparation method and use thereof” (LANZHOU INSTITUTE OF CHEMICAL PHYSICS, CHINESE ACADEMY OF …, priority 2018, dated 2024).
Blank lines part the entries; values can stand above or below the compound they belong to.

How the values were obtained:
PC12 cells = test: Protection against hydrogen peroxide-induced oxidative damage to PC12 nerve cells (MTT); type: cell-based; conditions: for protective effect on PC12 nerve cells against hydrogen peroxide (comparison in words): 2.5-50 μM, 250 μM H2O2, FIG. 16
Method: 2. Method: PC12 cells were cultured as follows. PC12 cells were inoculated into the high-glucose DMEM medium containing 10% fetal bovine serum, penicillin 100 U mL^−1, and streptomycin 100 μg mL^−1, and cultured in the cell incubator at 37° C. under 5% CO2. The medium was changed every other day. The cells were routinely trypsinized and passaged. The cells were used for experiments when they reached 70-80% confluence.
4. Oxidative damage modeling: PC12 cells in the logarithmic growth phase were inoculated into a 96-well cell culture plate at a density of 5×10^3 cells/well. H2O2 was added at different concentrations, and cultured for 4 h. MTT was added according to the above MTT assay, and A value of each well was measured. The H2O2 concentration at which the cell viability was reduced by 50% was finally selected as the modelling concentration.
Therefore, 250 μM was selected as the induction concentration of nerve cell oxidative damage.
5. Grouping and drug treatment: The experimental groups was divided into the normal blank control group, the H2O2 model group (250 μM), concentration groups (2.5 μM, 5.0 μM, 10 μM, 25 μM, 50 μM) for phthalides and their derivatives, and the positive control group (butylphthalide). Each group for phthalides and their derivatives as well as the positive control group were added with 250 μM H2O2, respectively. In the experiment, the solutions of phthalides and their derivatives were first added respectively, so that the final concentrations reached the corresponding values. After 4 h, H2O2 was added, and MTT was added after 24 h. The A value was measured to calculate the cell viability.

[1] = test system: acute cerebral ischemic infarction (MCAO model); test: Cerebral infarction in acute ischemic stroke, suture-occluded MCAO model; type: in vivo, Wistar rat; conditions: for therapeutic effect on cerebral infarction (words): 3 days after modeling
Method: 1. Experimental animals: […] Wistar male rats (230-250 g), provided by Lanzhou Veterinary Research Institute, Chinese Academy of Agricultural Sciences. 2. […] MCAO model (Middle Cerebral Artery Obstruction in rats) was established through suture-occlusion, and the rats were intraperitoneally injected with 10% chloral hydrate at a dosage of 400 mg/kg for anesthetization. The rats were fixed with supine position method to expose the neck. It was shaved and the skin was cleaned for skin incision. Under gentle operations, the main blood vessels such as left common carotid artery, arteria carotis interna, and arteria carotis externa were separated. The arteria carotis externa was selected to be ligated and disconnected, to avoid the bleeding of the common carotid artery. The common carotid artery was temporarily clamped with an arterial clip. A small opening was cut at the end of arteria carotis […], and used for the placement of the suture-occlusion. The round head of the prepared suture-occlusion was held by the ophthalmic tweezer and gently inserted, with a controlled depth of about 1.8-2.0 cm. The incision was sutured conventionally. After 0.5 h of cerebral ischemia, the suture-occlusion was removed to restore the blood supply. At a certain time after administration, the rats were sacrificed. The brain tissue was stained with 0.5% 2,3,5-triphenyltetrazolium chloride […], and the cerebral infarction area was scanned and calculated, wherein the normal tissue was stained in red and the infarcted tissue was stained in white. 3. Animal grouping: The animals were grouped as follows: the model group (acute ischemia and hypoxia pathological model, administrated with an equal dosage of physiological saline containing 8% Tween-80), the sham operation group (not administrated, as the negative control, administrated with an equal dosage of physiological saline containing 8% Tween-80), the prevention group (administrated 3 days in advance), and treatment group (administrated for 3 days after the blood supply was restored from embolism). 4. Method of administration: […] Results: […] A. Negative model control, infarct area: 30.57%; B. […] C.

[2] = In vivo pharmacokinetics in rats (gavage and intravenous injection), plasma HPLC-DAD; design: species or system Wistar rats; T1/2ka: unit not given here; conditions: rat
Method: Certain amounts of N-cyclopropyl-3-n-butyl-3-hydroxy-ligusticum lactam and N-cyclopropyl-3-n-butyl-3-hydroxy-phthalide lactam standards were accurately weighed respectively, and dissolved and diluted in the methanol to obtain 2.0 mg/mL of standard stock solutions. Certain standard stock solutions were accurately weighed and mixed respectively, and diluted with methanol to […], 0.7813, 1.5625, 3.1250, 6.2500, 12.500, 25.0000, 50.0000, and 500.0 μg/mL. 20 uL of each sample was analyzed by HPLC system, to sequentially determine N-cyclopropyl-3-n-butyl-3-hydroxy-ligusticum lactam and N-cyclopropyl-3-n-butyl-3-hydroxy-phthalide lactam. The peak area (A) was linearly regressed with the concentration C (g/mL), to obtain the regression equation and linear range, detection limit (LOD), and quantification limit (LOQ).
1.2 Preparation method for test sample: The compound prepared according to Example 7 (the content of N-cyclopropyl-3-n-butyl-3-hydroxy-ligusticum lactam is 92.5%; and the content of the compound N-cyclopropyl-3-n-butyl-3-hydroxy-phthalide lactam is 7.5%) was prepared into the raw stock solution at a concentration of 15 mg/mL by 10% ethanol, 20% Tween 80, and 70% physiological saline. The rats were dosed based on the body weights, with a dosage of 90 mg/Kg by oral administration (by gavage) and a dosage of 40 mg/Kg by intravenous injection.
1.3 Pretreatment method for plasma sample: 0.5 mL of rat whole blood was taken and placed in a 1.5 mL centrifuge tube with 20 uL sodium heparin therein, and centrifuged at a high rotation rate of 4×10^3 r·min^−1 for 5 min. 200 μL of plasma was taken and 800 μL of dichloromethane was added. The mixture was vortexed and centrifuged for 10 min at a rotation rate of […]. The lower layer solution was separate and blown to dryness with nitrogen gas at room temperature, and then reconstituted with 300 μL of methanol. The solution was eluted, filtered, and dried to dryness with nitrogen. After adding 30 μL of methanol, the solution was centrifuged, and 20 μL of the supernatant was used to determine the peak areas by HPLC.
1.4 Determination of pharmacokinetic parameters of phthalide derivatives in rats. Twelve male Wistar rats were randomly divided into two groups, wherein 6 rats were administrated with 40 mg/kg of phthalide derivative (the intravenous injection group (i.v.)). At 0 (pre-dose), 0.167, 0.333, 0.5, 1, 2, 3, 4, and 6 hours after administration, about 500 μL of blood was collected from the Angulus oculis, respectively, and 200 μL of plasma was frozen after anticoagulation treatment and centrifugation. 6 rats in the gavage administration (po) group were administrated by 90 mg/kg of phthalide derivative. At 0 (pre-dose), 0.5, 1, 2, 3, 4, 6, 8, 10, and 12 h after administration, about 500 μL of blood was collected from the Angulus oculis, respectively, and 200 μL of plasma was frozen after anticoagulation treatment and centrifugation. The plasma samples were warmed to the room temperature before pretreatment, and 20 μL of the sample solutions were analyzed by liquid chromatography. The blood drug concentration at each time point was calculated according to the standard curve. The dose-time curve was fitted using DAS2.0 software and the pharmacokinetic parameters were calculated. FIGS. 18 and 19 show the dose-time curves by gavage administration and intravenous injection, respectively.

[3] = test system: β-amyloid-induced neurotoxicity; conditions: through p38 and PI3K/Akt signaling pathways; cited from earlier work
[4] = Rattus norvegicus, PC-12, read-out: cell viability
[5] = treatment group, dosed for 3 days after modeling, 40 mg/kg, intraperitoneal injection
[6] = male, Wistar, in vivo, iv, 40 mg/kg
[7] = male, Wistar, in vivo, po, 90 mg/kg
[8] = po (gavage), 90 mg/kg of Example 7 mixture

- AUC(0-inf) [2, 6]: 12100 ng·h/mL
- AUC(0-t) [2, 6]: 6020 ng·h/mL
- CL1 [2, 6]: 5445.044 L/h/kg
- CL2 [2, 6]: 20518.475 L/h/kg
- K10 [2, 6]: 1.456 h⁻¹
- K12 [2, 6]: 5.488 h⁻¹
- K21 [2, 6]: 1.17 h⁻¹
- R_AUC(t/∞) [2, 6]: 49.7%
- V1 [2, 6]: 3739.124 L/kg
- V2 [2, 6]: 17537.504 L/kg
- t1/2α [2, 6]: 0.088 h
- t1/2β [2, 6]: 3.213 h
- AUC(0-inf) [2, 7]: 37100 ng·h/mL
- AUC(0-t) [2, 7]: 35300 ng·h/mL
- CL1 [2, 7]: 2719.904 L/h/kg
- CL2 [2, 7]: 1163.858 L/h/kg
- CL3 [2, 7]: 65.258 L/h/kg
- Cmax [2, 7]: 8820 ng/mL
- K10 [2, 7]: 3.763 h⁻¹
- K12 [2, 7]: 1.61 h⁻¹
- K13 [2, 7]: 0.09 h⁻¹
- K21 [2, 7]: 0.684 h⁻¹
- K31 [2, 7]: 0.272 h⁻¹
- Ka [2, 7]: 4.021 h⁻¹
- R_AUC(t/∞) [2, 7]: 95.4%
- T1/2ka [2, 7]: 0.172
- Tmax [2, 7]: 1.2 h
- V1 [2, 7]: 722.758 L/kg
- V2 [2, 7]: 1701.61 L/kg
- V3 [2, 7]: 240.115 L/kg
- t1/2α [2, 7]: 0.122 h
- t1/2β [2, 7]: 1.478 h
- t1/2γ [2, 7]: 2.643 h
Compound: CCCCC1(O)C2=C(C=CCC2)C(=O)N1C1CC1 (racemic) [ligustilide derivative, N-cyclopropyl-3-n-butyl-3-hydroxy-ligusticum lactam]
- protective effect on PC12 nerve cells against hydrogen peroxide (comparison in words) (PC12 cells): strongest protective effect
- viability at 2.5 µM (PC12 cells; [4]): 80%
- viability at 10 µM (PC12 cells; [4]): 95%
- infarct area ([1]; prevention group, pre-dosed for 3 days, modeling, dosed for another 3 days, intraperitoneal injection, model control 30.57%): 22%
- anti-embolic effect ([1]; prevention group, survived animals): relatively weak anti-embolic effects
- therapeutic effect on cerebral infarction (words) ([1]; treatment group, 40 mg/kg, intraperitoneal injection, 40 mg/kg): complete recanalization
- therapeutic effect on cerebral infarction (words) ([1]; treatment group, 40 mg/kg, intraperitoneal injection, listed as N-cyclopropyl-3-n-butyl-3-hydroxy-ligusticum lactam, 40 mg/kg): effectively prevent the occurrence of cerebral infarction
- infarct area, middle portion [1, 5]: 0%
- infarct area, right side, calculated according to the edema removal method [1, 5]: negative value
- infarct area, left side ([1]; treatment group, dosed for 3 days after modeling, 40 mg/kg, intraperitoneal injection, model control 30.57%): 4%

Compound: CCC/C=C1\OC(=O)C2=C1CCC=C2 [ligustilide, reference compound]
- protective effect on PC12 nerve cells against hydrogen peroxide (comparison in words) (PC12 cells): stronger than that of n-butenylphthalide
- concentration at which β-amyloid-induced neurotoxicity is inhibited [3]: 1 to 30 µM

Compound: CCCCC1(O)c2ccccc2C(=O)N1C1CC1 (centres unmarked) [n-butenylphthalide derivative, N-cyclopropyl-3-n-butyl-3-hydroxy-phthalide lactam]
- protective effect on PC12 nerve cells against hydrogen peroxide (comparison in words) (PC12 cells): almost the same protective effects
- CL1 [2, 8]: 893.769 L/h/kg
- CL2 [2, 8]: 802.825 L/h/kg
- CL3 [2, 8]: -50.58 L/h/kg
- K10 [2, 8]: 1.689 h⁻¹
- K12 [2, 8]: 1.517 h⁻¹
- K13 [2, 8]: -0.096 h⁻¹
- K21 [2, 8]: 0.543 h⁻¹
- K31 [2, 8]: 0.167 h⁻¹
- Ka [2, 8]: 2.425 h⁻¹
- R_AUC(t/∞) [2, 8]: 89.9%
- T1/2ka [2, 8]: 0.286
- Tmax [2, 8]: 1.768 h
- V1 [2, 8]: 529.323 L/kg
- V2 [2, 8]: 1478.868 L/kg
- V3 [2, 8]: -302.598 L/kg
- t1/2α [2, 8]: 0.204 h
- t1/2β [2, 8]: 3.029 h
- t1/2γ [2, 8]: 3.513 h

Compound: CCCCC1OC(=O)c2ccccc21 (centres unmarked) [butylphthalide, reference compound]
- cell viability (PC12 cells; drug positive control group, 250 μM H2O2, concentration not given): 68%
